Here are results for two substances from patent US9546367B2, “siRNA compositions and methods for inhibiting gene expression in tumor initiating cells of breast cancer” (priority 2011, dated 2017).

The subject of series [1] is MDAMB231. Description: in vitro MSFE with packaged siRNA. It counts as cell-based, human. Conditions: Day 8, p<0.05. The text has this:
FIG. 7A, FIG. 7B, and FIG. 7C show confirmation of BCSC target genes and comparison of changes in mammosphere formation efficiency. […] Data analyzed by one-way ANOVA and plotted as mean±SEM for n=6 replicates; *p<0.05;
The siRNA sequences of two candidate genes RPL39 and MLF2 were packaged in nanoliposomes and the effects on MSFE determined in vitro, as described above, using packaged siRNA instead of lentiviral shRNA.

Series [2] deals with BCM2665 xenografts. Description: short-term in vivo siRNA (multistage particle) treatment, BCM2665 patient-derived xenograft. Set-up: species or system SCID-Beige mice. The following applies: for tumor volume: BCM2665; for secondary MSFE: BCM2665 xenograft cells, tumors collected after two weeks; for Aldefluor levels: BCM2665 xenografts, reduction not statistically significant. Here is the method: FIG. 10A, FIG. 10B, FIG. 10C, and FIG. 10D illustrate the short-term, in vivo treatment of siRNA in triple-negative, patient-derived human cancer in a murine model xenograft, BCM2665. BCM2665 cells were transplanted into cleared mammary fat pad of SCID beige mice (n=9). These tumors were randomized into the same six groups as stated in the preceding figure, and treated in a manner identical to the SUM159 xenografts. […] RPL39 and MLF2 siRNA respectively. […] Data were analyzed by one-way ANOVA, and are plotted as mean±SEM for n=9 replicates; *p<0.05;
The effect of MLF2 and RPL39 using siRNA packaged in multistage nanoparticles in two different triple negative models were studied. SUM159 and a patient-derived human cancer xenograft (BCM2665) from a primary human breast cancer transplanted in SCID-Beige mice, the test group had 54 mice per xenograft line, and 9 mice per treatment arm. When tumor sizes reached 150 to 300 mm^3, mice were divided into six groups: (1) vehicle-treated, (2) chemotherapy on day 0 with one dose of docetaxel 20 mg/kg by intraperitoneal (i.p.) injection. (3) siRNA against MLF2 packaged in nanoparticles (single injection intravenous (i.v.) on Day 1), (4) combination treatment with docetaxel (20 mg/kg i.p. on Day 1) and siRNA against MLF2 (single injection i.v. on Day 1), (5) siRNA against RPL39 packaged in nanoparticles (single injection i.v. on Day 1), and (6) combination treatment with docetaxel (20 mg/kg i.p. on Day 1) and siRNA against inhibitor […] (single injection iv. on Day 1). The same dose (15 μg siRNA) was used in all experiments. Animals were sacrificed on Day 14. The tumors were harvested and analyzed for downstream effects on BCSC self-renewal using FACS analysis, and MSFE.
The fraction of BCSCs in the xenograft tumors from the six treatment groups were processed by mincing and digesting the tumors using collagenase type III, for 3 hrs at 37° C. in order to dissociate the tumors into single cells. Changes in CD44+/CD24/Lin− and Aldefluor® were analyzed as described previously (Li et al., 2008). Briefly, cells were stained with primary antibodies antiCD44 labeled APC (dilution 1:10. BD Biosciences), anti-CD24-labeled FITC (dilution 1:10, BD Biosciences), and additionally with H2KD-labeled PE to eliminate all mouse, lineage-positive cells. The cells were incubated in HBSS (Hanks Balanced Salt Solution, GIBCO) for 15 min on ice with 2% FBS for the antibodies and 45 min for Aldefluor® reagent. Following incubation, cells were washed once with HBSS and re-suspended in HBSS supplemented with 2% FBS. […] (PI) was added to the cells for live/dead gating prior to FACS analysis.
Mammosphere formation efficiency, the in vitro assay for stem cell self-renewal, was performed as described previously (Dontu et al., 2003; Dontu et al., 2005; Li et al., 2008). Single cells were plated in ultra-low attachment plates (Corning, Acton, Mass., USA) at the density 40,000 viable cells/mL for BCM2665 in primary culture, and at the density 10,000 viable cells/mL in secondary culture. For mammosphere culture, cells were grown in serum-free mammary epithelial basal medium (MEGM) (Lonza, Inc.) supplemented with B27 (Invitrogen), 20 ng/mL EGF (BD Biosciences), and 1% heparin (Sigma Chemical Co.) in a humidified incubator ([…]: 95% air, 37° C. for 14 days, as previously described (Li et al., 2008).

[3] abbreviates: siRNA alone (15 μg i.v., MSV) vs vehicle.
Setting [4] is: siRNA+chemotherapy vs standard-dose docetaxel (20 mg/kg).

Take “MLF2 siRNA: siRNA against myeloid leukemia factor 2; sense SEQ ID NO: 3 CCCTGATGGATCCCTTTGCTAT, antisense SEQ ID NO: 19 ATAGCAAAGGGATCCATCAGGA (packaged in nanoliposomes, chemistry not given here, further chemistry not given here)”: the “secondary MSFE” value in series [1] was “significantly reduced”; in series [2], “Significant decrease”. The tumor volume result is on record as “Significant reduction” in series [2] (setting [3]) and “Similarly, observations were obtained” in series [2] (setting [4]). In series [2], the Aldefluor levels entry is given as “reduction”.

With “RPL39 siRNA: siRNA against ribosomal protein L39-like; sense SEQ ID NO: 15 ACGATTCCTGGCCAAGAAACAA, antisense SEQ ID NO: 31 TTGTTTCTTGGCCAGGAATCGC (listed as DNA, chemistry not fully specified)”, the “secondary MSFE” value was “significantly reduced” in series [1] and “Significant decrease” in series [2]. In addition, the tumor volume result in series [2] (setting [3]) is on record as “Significant reduction”; in series [2] (setting [4]) it was “Similarly, observations were obtained”. Moreover, the Aldefluor levels result in series [2] is given as “reduction”.
